Source: patent US11318141B2, “Methods and compositions related to STK1-targeted small molecules as antibiotic resistance breakers” (Ohio State Innovation Foundation, priority 2017, dated 2022)
≈ marks a conversion by molar mass, not a printed value. Where “and” joins values, the source holds several entries; their conditions need not be identical. Identical values can stand only once. Like-named read-outs stand apart in the source and are kept apart here.

Key:
[1] = target: S. aureus STKK1 (the soluble kinase domain of STK1, 280 aa) (Staphylococcus aureus, UniProt A0ABF7PGK0); assay: In vitro kinase assay: inhibition of autophosphorylation of recombinant STKK1 (γ32P-ATP); type: biochemical; details: after 5 min pre-incubation
Experimental: For the present study, recombinant His-tag-STKK1 was created along with part of the adjacent juxta-membrane domain (1-280 aa) using the pET14b vector system and specific primers (Table-1 and Table-2) as described previously. The recombinant proteins were expressed in BL21 DE3 (pLysS) and purified using Ni^+2-NTA-affinity chromatography, dialyzed against 10 mM Tris/HCl, pH 7.5, and stored as 10% glycerol stock (500 μg/ml) at −20° C. as described previously. In vitro kinase assays were performed using 2 μg STKK1 in the presence of 1 μCi γ^32P-ATP (specific activity 3000 Ci/mMol, PerkinElmer) at 30° C. for 45 min in a final volume of 30 μl phosphorylation buffer (50 mM Tris/HCl, pH7.5, 1 mM dithiothreitol, 5 mM MgCl2, and/or 5 mM MnCl2). The inhibition of autophosphorylation of STKK1 was carried out using this assay in the presence and absence of (50 μM) individual members of the 32 prescreened small molecule compound library. Phosphorylated proteins were separated by SDS-PAGE and subsequently identified by using Coomassie stain and autoradiography. The individual phosphorylated protein bands were then excised and subjected to radioactive counting using beta-scintillation counter for quantitative analysis. Experiments were repeated at least three times for statistical analysis.

S. aureus STK1 / STKK1 = assay: Solid-phase ATP affinity chromatography, elution of bound kinase by inhibitor, Western blot; type: binding; details: eluted with 50 μM inhibitor, anti-STK1 immunoblot
Experimental: (§1) An overnight culture of S. aureus MW2 strain was centrifuged, and the resulting bacterial pellet was resuspended in lysostaphin digestion buffer (50 mM Tris/HCl buffer, pH 7.5, containing 5 μg/ml DNAse/RNAse and protease inhibitor cocktail) in 1/10 the volume of the original culture volume. The latter was then subjected to lysostaphin treatment (15 U/ml). The lysostaphin digest was sonicated (5 sec pulse at every 10 sec for 10 min at 50% of 130 W, […]), and the debris free whole cell lysate was obtained after centrifugation (10.000×g, 10 min, 4° C.). […] The column was then washed with ten column volumes of binding buffer. Subsequently, the bound proteins were eluted with the 10-column volume of buffer containing 50 μM Inh-2 and Inh2-B1. S. aureus crude lysate, the last fraction of the column washing step, and eluted fractions were resolved by SDS-PAGE and electroblotted onto a PVDF membrane. […] A similar experiment was performed using S. pyogenes whole cell lysates obtained from phage lysin-digested S. pyogenes M1T1 strain using the anti-SP-STK antibody as described previously using to determine the specificity of the inhibitor for S. aureus STK1.

[2] = test system: S. pyogenes SP-STK / SP-STKK; assay: as above; type: binding; details: 50 μM inhibitor
Experimental: as §1

S. pyogenes SP-STK = assay: In vitro autophosphorylation / kinase activity of SP-STK; type: biochemical; details: at 116 μM
S. aureus MW2 = assay: Broth dilution susceptibility / growth inhibition assay, Muller Hinton broth; type: cell-based, Staphylococcus aureus; details: Staphylococcus aureus
Experimental: (§2) Subsequently, the susceptibility of S. aureus MW2 strain to Ceftriaxone, Cefotaxime, Inh2, and Inh2-B1 was confirmed by the CLSI recommended serial dilution method using Muller Hinton broth. Minimum bactericidal activity (MBC) was measured using Muller-Hinton agar. Changes in the MBC of Ceftriaxone/Cefotaxime in the presence of serially diluted Inh2-B1 was determined in two steps. Initial screening was carried out using the Checkerboard method using Muller-Hinton agar (FIG. 15). […] Subsequent time to kill assays were carried out using 50 μM Inh2-B1 and Ceftriaxone. Cefotaxime (1 μg/ml) in a final volume of 250 μl using a sterile 96-well (U-bottom) microtiter plate over a period of 16 h at 37° C. under constant rotation (120 rpm). Optical density and corresponding CFU counts were measured at every two-hour interval up to 8 hours with a final overnight reading at the end of incubation period. CFU counts were measured using appropriate dilution of 10 μl of properly mixed samples at each time interval. All experiments were performed in three biological replicates and the statistical analysis of the results obtained at each time point was carried out by the non-parametric t-test with Welch's correction using GraphPad Prism 6 software.

[3] = test system: cell wall hydrolase genes in S. aureus MW2-WT; assay: qRT-PCR mRNA expression of cell wall hydrolase genes; type: cell-based, Staphylococcus aureus; details: treated MW2-WT vs untreated
Experimental: The late log phase-grown S. aureus strains MW2 wild-type, and isogenic ΔSTK1 and ΔSTP1 mutant strains, as well as S. aureus MW2 strain treated with 25 μM Inh2-B1 for 4 h, were subjected to lysostaphin treatment to obtain whole cell lysate. Total RNA from the resulting lysate was first extracted by TRIZOL™ (Invitrogen/Thermo) and treated with RNase-free DNaseI. High-quality total RNA (RIN>7.0, and 260/280 and 260/230 ratios >1.8) was then extracted by using RNA purification kit (Norgen, Canada) per manufacturer's instructions and confirmed by an Agilent 2100 Bioanalyzer (Agilent Technologies, Palo Alto, Calif.). The first-strand cDNA from the total RNA was generated, and relative mRNA concentration was quantitated using SYBR Green qRT-PCR master mix and specific primers, using a Light Cycler® 480 real-time PCR machine (Table 2). The results obtained for all samples (three biological replicates each in triplicates) were normalized to corresponding values of 16S rRNA. All results including relative fold-changes in the mRNA expression (mutant vs. wild-type or treated vs. nontreated) for individual genes were analyzed using Exor4 software (Roche Applied Science). Changes in expression ratios by more than 2-fold (up- or down-regulation) were considered as significant.

[4] = test system: S. aureus MW2ΔSTP1 mutant; assay: E-test antibiotic susceptibility (MIC), Muller-Hinton agar; type: cell-based; details: Staphylococcus aureus
S. aureus MW2 wild-type [5] = assay: Serial passage at suboptimal dose (10 generations), stk1 PCR and DNA sequencing; type: cell-based, Staphylococcus aureus; details: in the presence of 50 μM Inh2-B1
Experimental: (§3) Since the STK1 is not essential for bacterial survival and its absence results in retardation of growth, an end-point bactericidal assay was done, employing the Checkerboard titration method followed by a time-to-kill assay using the broth dilution method. The 96-well plate-based checkerboard titration assays were performed using the fixed number of CFUs of MW2 strain, and the survival of the bacteria was measured on solid agar plates as an end-point result. […] The cut-off value to designate clinical isolates of S. aureus for antibiotics, including Ceftriaxone (TX) and Cefotaxime (CT) as susceptible, is less than 4 μg/ml (i.e., <4.8 μM of TX, and <7 μM of CT). […] CFU counts of MW2-WT grown in the presence of various concentrations of Inh2-B1 were examined over a period of 16 h. […] Similarly, it was also determined CFU counts of MW2-WT and MW2ΔSTK1 strains each grown in the absence or the presence of 50 μM of Inh2-B1 and 1.5 μM Ceftriaxone (1 μg/ml) or […] Cefotaxime (1 μg/ml) for 16 h employing the broth dilution method. […] Further, to address whether MW2 or STK1 could become refractory to a potential combined therapy, the S. aureus MW2 wild-type strain was grown in the presence of suboptimal dose of Inh2-B1 alone and combination with Ceftriaxone and Cefotaxime (25 μM Inh2-B1 and 3 μM of Ceftriaxone or 3 μM Cefotaxime) for consecutive 10 generations.

S. aureus MW2 wild-type [6] = assay: Checkerboard titration end-point bactericidal assay (MBC), Muller-Hinton agar; type: cell-based, Staphylococcus aureus; details: for MBC: Staphylococcus aureus, MW2WILDTYPE
Experimental: FIGS. 15A-15B show checkerboard assays for determining bactericidal assay. Serial two-fold dilutions of 2 mM of Inh2-B1 (MW=411.58 g/mol) and (A) 3 mM ceftriaxone (MW=669.7 g/mol) were made in two separate 96-well plates in vertical (B1-B12 to H1-H2 wells) and horizontal (A2-H2 to A12-H12 wells) directions respectively. Serially diluted Inh2-B1 (100 μL) in the individual well was then mixed with the 100 μL serially diluted ceftriaxone present in the corresponding wells. The resulting various combinations of Inh2-B1 (starting from 1 mM) and ceftriaxone (starting from 1.5 mM) or cefotaxime (2.1 mM) as well as serially diluted one Inh2-B1 (B1 to H1) and ceftriaxone (A2-A12) or cefotaxime (A2-A12) were then incorporated in Muller-Hinton mini agar plates (2 mL). The agar plates were then seeded and diluted S. aureus MW2-wild-type culture equivalent to approximately 23±3 CFU. This checkerboard assay was used to determine the ideal combination of lowest concentration of Inh2-B1 and ceftriaxone that kills 99.9% of the wild-type MW2.
as §3
as §2, with “interval.” for “interval. All experiments were performed in three biological replicates and the statistical analysis of the results obtained at each time point was carried out by the non-parametric t-test with Welch's correction using GraphPad Prism 6 software.”

S. aureus MW2-WT [7] = assay: microbe, parasite or virus in culture; type: cell-based, Staphylococcus aureus; details: Staphylococcus aureus, MW2WT
[8] = test system: S. aureus MW2ΔSTK1 mutant; assay: E-test antibiotic susceptibility (MIC), Muller-Hinton agar; type: cell-based; details: Staphylococcus aureus
S. aureus MW2-WT [9] = assay: Time-to-kill assay (OD and CFU counts over 16 h), broth dilution; type: cell-based, Staphylococcus aureus; details: only 50 μM Inh2-B1, only 1.5 μM Ceftriaxone (1 μg/ml) or only 3 μM Cefotaxime (1 μg/ml), 16 h
Experimental: (§4) FIGS. 4A-F show. […] Optical Density and corresponding Colony forming units of (C and D) MW2-WT and (E and F) MW2ΔSTK1 cultures in the presence or absence 50 μM Inh2-B1, 1.51 μM (1 μg/ml) Ceftriaxone, 2.125 μM (1 μg/ml) Cefotaxime, and combination of Inh2-B1 plus Ceftriaxone, and Inh2-B1 plus Cefotaxime. The experiments were carried out as described in the Materials and Method section using Muller-Hinton broth and seeded with 4×10^6 CFUs of S. aureus MW2-Wild type or MW2ΔSTK1 strains per well. Each data points represent Mean±S.D. P values of significance (**=<0.01, ***=<0.001) were determined using the t-test with Welch's corrections. NS—Not significant.
as §2

S. aureus MW2ΔSTK1 = assay: as above; type: cell-based, Staphylococcus aureus; details: in the presence of Ceftriaxone (1 μg/ml)
Experimental: as §4, §2

S. aureus STKK1 (the soluble kinase domain of STK1, 280 aa), sequence (A0ABF7PGK0 entry or part of it): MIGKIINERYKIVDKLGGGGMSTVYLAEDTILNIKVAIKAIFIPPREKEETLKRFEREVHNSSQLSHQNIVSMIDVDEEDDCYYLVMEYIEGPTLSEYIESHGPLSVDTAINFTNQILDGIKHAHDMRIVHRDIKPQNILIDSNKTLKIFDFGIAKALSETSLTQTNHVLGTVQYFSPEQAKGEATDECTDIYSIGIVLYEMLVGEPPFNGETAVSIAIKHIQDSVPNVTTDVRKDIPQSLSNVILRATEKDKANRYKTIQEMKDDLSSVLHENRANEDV

SMILES	IC50 [1] [µM]	elution of STK1 bound to ATP-column, whole cell lysate of S. aureus MW2 (S. aureus STK1 / STKK1)	elution of SP-STK bound to ATP-column, S. pyogenes whole cell lysate [2]	inhibition of autophosphorylation of S. pyogenes SP-STK (S. pyogenes SP-STK)	IC50 (S. aureus MW2; MW2, read-out: IC50 concentration for MW2) [µM]	MIC (S. aureus MW2; MW2, read-out: minimum inhibitory concentration) [µM]	expression of cell wall hydrolase-encoding genes [3]	MIC [4] [µg/mL]	bactericidal activity against the passaged strain (S. aureus MW2 wild-type [5])	MBC (S. aureus MW2 wild-type [6]; agent alone, MW2, read-out: Minimum bactericidal concentration (MBC))	MBC (S. aureus MW2 wild-type [6]; in the presence of 50 μM of Inh2-B1, read-out: MBC for MW2 in the presence of Inh2-B1)	concentration up to which growth of MW2 was seen (S. aureus MW2 wild-type [6]; agent alone, further analysis) [µM]	concentration of wells with ≥1 CFU of wild-type MW2 (S. aureus MW2 wild-type [6]; checkerboard, agent alone) [µM]	fold reduction of MBC (S. aureus MW2 wild-type [6]; in the presence of 50 μM of Inh2-B1 vs antibiotic alone) [fold]	MIC (S. aureus MW2-WT [7]) [µg/mL]	MIC [8] [µg/mL]	growth pattern of the wild-type, single agent (S. aureus MW2-WT [9])	growth of MW2ΔSTK1 (S. aureus MW2ΔSTK1)
Cc1ccc(NC(=O)c2sc(=S)n3c2[nH]c(=O)c2ccccc23)c(C)c1 [Inh2, N-(2,4-Dimethylphenyl)-5-oxo-1-thioxo-4,5-dihydro[1,3]thiazolo[3,4-a]quinazoline-3-carboxamide]	24.5	presence of STK1	did not elute	did not inhibit autophosphorylation	12	48	down-regulation of cell wall hydrolase-encoding genes	–	–	–	–	–	–	–	–	–	–	–
CO/N=C(\C(=O)N[C@@H]1C(=O)N2C(C(=O)O)=C(CSc3nc(=O)c(=O)[nH]n3C)CS[C@H]12)c1csc(N)n1 [Ceftriaxone]	–	–	–	–	–	–	–	> 100	remained intact	151 µM and 100 µg/mL	0.59 µM and 0.39 µg/mL	125	≤ 75.00	256	> 100	4 (≈ 7.21 µM)	remained unaltered	reduced significantly
